These results are taken from patent publication US20230028880A1, “CD38-BINDING AGENTS AND USES THEREOF” (Biohaven Therapeutics Ltd., priority 2019, published 2023).

The term EC50 denotes the concentration at which the effect is half-maximal.

Several values for one entry are separate records, joined by “and”; a condition that tells them apart may be missing. Equal entries are not always repeated.

Assay [1] concerns Effector cells (ADCC reporter cells) with Daudi cells. Description: ADCC reporter assay: Daudi cells, IVIG and ADCC reporter effector cells (luciferase, RLU). The class given is cell-based. As to conditions: IVIG; for Luminescence, ADCC reporter assay: duplicate columns. A digest of the protocol:
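Daudi targets (5,000/well) were combined with compound (8 concentrations, ½-log steps), human IVIG added at 40 ug/mL, and 37,500 ADCC reporter effector cells per well. After 18 h at 37° C and equilibration to 25° C, luciferase luminescence was read.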
A general note: In a reporter assay the amount or activity of a reporter protein is the signal.

The subject of the next assay is Daudi cells. Description: KILR ADCC killing assay: KILR-transfected Daudi cells with purified NK cells (% dead cells). The class given is cell-based. The following applies: for % dead cells, KILR ADCC killing assay: KILR Daudi cells with purified NK cells, duplicate columns. The text has this: In some embodiments, CD38-ABT ARMs bind to target cells and antibodies, e.g., human antibodies. In some embodiments, such ternary structures present antibodies to effector cells such as NK cell and bind to, e.g., CD16a receptors. […] Daudi cells were transfected with KILR reporter construct (DiscoverX #97-0002). An attenuated lentivirus was designed to deliver a Moloney Murine Leukemia Virus (MMLV) engineered to drive expression of a housekeeping gene tagged with Enhanced ProLabel (ePL) a beta-Galactosidase (beta-gal) reporter fragment. This construct was designed to remain inside cells. Death leads to the release of the KILR reporter protein into the medium. Detection reagent (DiscoverX #97-0001L) contained the complementing beta-gal reporter fragment enzyme acceptor (EA). The two components combined to generate a chemiluminescent signal.

As to `CCCCC[C@@H]1NC(=O)[C@H](CCCNC(=N)N)NC(=O)[C@H](C)NC(=O)CSC[C@@H](C(=O)NCCOCCOCCOCCOCCOCCOCCn2nnc3c2CCC2C(CC3)C2COC(=O)N2CCC(C(=O)NCC(=O)N[C@H](CCC(=O)N[C@H](CCC(=O)N[C@H](CCC(=O)O)C(=O)N[C@H](CCC(=O)N[C@H](CCC(=O)NCC(=O)NCC(=O)N[C@@H](CC(=O)O)C(=O)N[C@H]3CSSC[C@@H](C(=O)N[C@H](C(=O)O)[C@@H](C)O)NC(=O)[C@H](Cc4c[nH]c5ccccc45)NC(=O)[C@H](C(C)C)NC(=O)[C@H](CC(C)C)NC(=O)[C@H](CCC(=O)O)NC(=O)CNC(=O)[C@H](CC(C)C)NC(=O)[C@H](Cc4c[nH]cn4)NC(=O)[C@H](Cc4c[nH]c5ccccc45)NC(=O)[C@H](C)NC3=O)C(=O)O)C(=O)O)C(=O)O)C(=O)O)CC2)NC(=O)[C@H](CC(=O)O)NC(=O)[C@H](CCCCC)NC(=O)[C@H](Cc2ccc(-c3ccccc3)cc2)NC(=O)[C@H](CC(C)C)NC(=O)[C@H](C(C)C)NC(=O)CNC(=O)[C@H](CC(=O)O)NC(=O)[C@H](Cc2c[nH]cn2)NC(=O)[C@H](Cc2ccc(O)cc2)NC1=O` (some centres unmarked) [I-17], the EC50 stood at 5.9 nM in assay [1] (ADCC reporter assay) and 5.9 nM with Daudi cells (KILR Daudi cells, purified NK cells, one set of experiments (FIG. 3)). In addition, in assay [1] (ADCC reporter cells, 18 h, one set of experiment (FIG. 2)), the EC70 result is “about 2.7 nM”. In addition, the “Luminescence, ADCC reporter assay” value in assay [1] (compound 0.3 nM, 18 h) is 26632 RLU and 25947 RLU; in assay [1] (compound 1 nM, 18 h) it was 32303 RLU and 36226 RLU; in assay [1] (compound 3 nM, 18 h) it was 50671 RLU and 54979 RLU; in assay [1] (compound 10 nM, 18 h), 63014 RLU and 62702 RLU; in assay [1] (compound 30 nM, 18 h) it was 69329 RLU and 70980 RLU; in assay [1] (compound 100 nM, 18 h), 70908 RLU and 75233 RLU. Also, the “Luminescence, ADCC reporter assay” value is 69068 RLU and 69848 RLU in assay [1] (compound 300 nM, 18 h); 60578 RLU and 59440 RLU in assay [1] (compound 1000 nM, 18 h). Besides, the “% dead cells, KILR ADCC killing assay” value is 5.8% and 5.1% with Daudi cells (compound 0.3 nM); 5.6% with Daudi cells (compound 1 nM); 6.4% and 7.1% in the assay on Daudi cells (compound 3 nM); 7% and 7.7% with Daudi cells (compound 10 nM); 8.9% and 10.1% with Daudi cells (compound 100 nM); 8.5% and 9.6% in the assay with Daudi cells (compound 300 nM).
